According to US20120149645A1, “COMPOSITIONS AND MODULATION OF MYOCYTE ENHANCER FACTOR 2 (MEF2)” (EMORY UNIVERSITY, priority 2010, published 2012):

B1: Mt2D: Mitochondria-targeting active MEF2D: mouse MEF2D 1-493aa with added mitochondria-targeting signal, lacking nuclear localization signals (protein, UniProt Q63943 1-493, looked up, fragment)
chain: MGRKKIQIQRITDERNRQVTFTKRKFGLMKKAYELSVLCDCEIALIIFNHSNKLFQYASTDMDKVLLKYTEYNEPHESRTNADIIETLRKKGFNGCDSPEPDGEDSLEQSPLLEDKYRRASEELDGLFRRYGSSVPAPNFAMPVTVPVSNQSSMQFSNPSSSLVTPSLVTSSLTDPRLLSPQQPALQRNSVSPGLPQRPASAGAMLGGDLNSANGACPSPVGNGYVSARASPGLLPVANGNSLNKVIPAKSPPPPTHNTQLGAPSRKPDLRVITSQGGKGLMHHLTEDHLDLNNAQRLGVSQSTHSLTTPVVSVATPSLLSQGLPFSSMPTAYNTDYQLPSAELSSLPAFSSPAGLALGNVTAWQQPQPPQQPQPPQPPQSQPQPPQPQPQQPPQQQPHLVPVSLSNLIPGSPLPHVGAALTVTTHPHISIKSEPVSPSRERSPAPPPPAVFPAARPEPGEGLSSPAGGSYETGDRDDGRGDFGPTLGLLRPA
modifications: mitochondria-targeting signal added
B2: ND6 MEF2 site probe WT (dsDNA)
DNA 1: CTAAACCCCCATAAATAGGAGAAGGCTT
DNA 2: AAGCCTTCTCCTATTTATGGGGGTTTAG

What was measured:
[1] = test system: MEF2D binding to ND6; experiment: ChIP assay of MEF2D binding to the ND6 MEF2 site in purified mitochondria; assay type: cell-based, mouse; conditions: for binding of mitochondrial MEF2D to the ND6 MEF2 site: SN4741 cells, MPP+ 25 μM or rotenone 100 nM for 12 hours
Text: (§1) (A) Mitochondria-targeting MEF2D (Mt2D) and mitochondria-targeting dominant-negative MEF2D (Mt2Ddn), which lacks the transactivation domain (TAD). […] Control indicates the control vector group. (C) Effects of Mt2D or Mt2Ddn on ND6 expression in SN4741 cells. Over-expression of Mt2Ddn in SN4741 cells reduced ND6 but not PPAR-γ coactivator 1 (PGC1) expression by western blotting (n=4, **p<0.01). Control indicates the control vector group. (D) Effects of over-expression of Mt2D or Mt2Ddn on mRNA levels of mitochondria encoded genes. […] Control indicates the control vector group. (E) Effects of Mt2D or Mt2Ddn on mtDNA L-strand transcription initiation in vitro (n=3; **P<0.01). A human mtDNA fragment containing mitochondrial L-strand promoter (LSP) and ND6 gene was used in the in vitro transcription assay. […] (F) Effects of Mt2D or Mt2Ddn on mtDNA de novo transcription in vivo (n=3; **P<0.01). Control (−) is without primers. Control (+) indicates the control vector group.
(§2) (A) Reduced binding of MEF2D to ND6 after neurotoxin treatment. SN4741 cells were treated with MPP+ (25 μM) or rotenone (Rot, 100 nM) for 12 hours. […] Control indicates untreated. […] Control indicates untreated. (C) Immunocytochemical analysis of mitochondrial MEF2D after MPP+ and rotenone treatment. SN4741 cells treated as described in (A) were stained (scale bar, 10 μm). […] Experiments were repeated four times. Control indicates untreated. […] SN4741 cells were treated with MPP+ after infection with the control, Mt2Ddn or Mt2DVP16 or MtND6 lentiviruses for 24 hours (upper graph: different doses of MPP+ for 24 hours; lower graph: 5 μM of MPP+ for different times). Cell viability was measured by WST-1 assay (n=4; *p<0.05; **P<0.01). Control indicates the control vector group.
Andres et al., J Biol Chem, 1995, 270:23246-23249. Moreover, this putative MEF2 binding site is conserved among several species. To test whether MEF2D binds to this putative MEF2 site, electronic mobility shift assay (EMSA) was performed. N-terminal MEF2D formed a complex with the labeled probe containing the ND6 MEF2 site. […] To corroborate this finding, a chromatin immunoprecipitation (ChIP) assay was carried out using highly purified mitochondria. […] ND6 but not ND2 based primers could amplify the bound sequence (FIG. 3C). Sequence analysis of the DNA bound by MEF2D after amplification confirmed the presence of the ND6 MEF2 site (FIG. 3D).

[2] = test system: ND6 mRNA; experiment: Real-time PCR of mitochondria-encoded mRNA levels in SN4741 cells; assay type: cell-based, mouse; conditions: SN4741 cells; relatively short exposure to toxicant
Text: as §1

[3] = test system: MEF2D and ND6 proteins; experiment: Western blotting of MEF2D, ND6 and PGC1 protein levels in SN4741 cells; assay type: cell-based, mouse; conditions: for level of ND6 protein / level of mitochondrial MEF2D protein / level of MEF2D in the nucleus / level of MEF2D in whole cell: SN4741 cells; for level of ND6 protein / level of mitochondrial MEF2D protein: purified mitochondria, MPP+ 25 μM or rotenone 100 nM for 12 hours; for level of MEF2D in the nucleus / level of MEF2D in whole cell: same toxicant condition
Text: as §1, §2
(§3) (A) Diagrams of Mt2DVP16 and MtND6. Mt2DVP16 was constructed by fusion of transactivation domain (TAD) of VP16 with DNA-binding domain of MEF2D and a mitochondria-targeting sequence (Mito). […] (C) Over-expression of Mt2DVP16 attenuated MEF2D siRNA-induced reduction of ND6 expression (n=3, **P<0.01).

[4] = test system: SN4741 cells; experiment: Immunocytochemistry, colocalization of MEF2D with MitoTracker; assay type: cell-based, mouse; conditions: SN4741 cells and primary midbrain dopamine neurons; toxicant treatment
Method: as §2
SN4741 cells or primary midbrain DA neurons were plated on glass slides in 24-well plates. Localizations of endogenous and exogenous MEF2D were visualized on a Zeiss LSM5 PASCAL confocal microscope. To visualize colocalization of MEF2D with the mitochondria, cells were stained with MitoTracker (Invitrogen) and anti-MEF2D (BD Bioscience) or anti-FLAG (Sigma) antibodies. Quantification of colocalization of signals was done using “Colocalization Analysis” program of software Image Pro (Media Cybernetics). Overlap coefficients of 50 cells in each group were collected. […]

[5] = test system: SN4741 cells; experiment: WST-1 cell viability assay; assay type: cell-based, mouse; conditions: SN4741 cells; different doses of MPP+ for 24 hours
Method: as §2
WST-1 assay was done using a kit (cat. no. 11644807001) from Roche and following procedures provided by the manufacturer. WST-1 (4-[3-(4-Iodophenyl)-2-(4-nitrophenyl)-2H-5-tetrazolio]-1,3-benzene disulfonate) is a water-soluble tetrazolium salt whose cleavage by cellular enzymes correlates with cell viability. Cells were seeded in 96-well plates and treated as indicated. Than 10 μl/well of premixed WST-1 Cell Proliferation Reagent was added, and the cells were incubated for an additional 4 hr under the same conditions. Absorbance at 450 nm was measured on a multi-well plate reader (Bio-Tek).

[6] = test system: mitochondrial MEF2D and ND6; experiment: MPTP mouse model, western blotting of mitochondria purified from brain SNpc; assay type: in vivo; conditions: chronic intraperitoneal MPTP vs saline treated controls
Method: For each group, six eight-week-old mice received chronic intraperitoneal injections of MPTP-HCl in saline or saline alone were killed on 5 or 20 days after injection. Mitochondria purified from brain SNpc region were analyzed by western blotting. Experiments were repeated three times. […] For each group, three mice received stereotactical injection of control vector (GFP) or Mt2Ddn lentivirus in SN. Two weeks later, mice were exposed to MPTP. After treatment for seven days, the survival of lentivirus-transduced TH+ neurons in SN was determined by immunohistochemistry (left panel). Quantitative analysis of nine mice from three independent experiments was shown at the bottom panel (scale bar, 30 μm; **P<0.01). […] Mitochondria were purified from brain striata of postmortem PD patients and controls (normal). Equal amounts of mitochondrial proteins were subjected to western blotting (upper panel). Quantitative analysis of the bands was shown at the right panel (n=13 patients and 13 controls, *P<0.01). Experiments were repeated two times.
Mitochondria were purified from brain tissue using discontinuous sucrose gradient method. Briefly, brain homogenate was made in ice-cold homo-buffer (0.32 M sucrose, 20 mM Tris-HCl, pH 7.4) and spun at 900×g, 4° C. for 10 min. The supernatant was transferred to another clean tube and spun at 10,000×g, 4° C. for 10 min. […]

[7] = test system: TH+ neurons in SNpc; experiment: MPTP mouse model of PD, TH immunohistochemistry in SNpc; conditions: mice, chronic MPTP exposure; SNpc and striatum
Method: (B) Role of mitochondrial MEF2D-ND6 pathway in maintaining TH+ neurons in SNpc in a MPTP mouse model of PD. For each group, three mice received stereotactical injection of control vector (GFP) or Mt2Ddn lentivirus in SN. Two weeks later, mice were exposed to MPTP. After treatment for seven days, the survival of lentivirus-transduced TH+ neurons in SN was determined by immunohistochemistry (left panel). Quantitative analysis of nine mice from three independent experiments was shown at the bottom panel (scale bar, 30 μm; **P<0.01).

[8] = test system: mitochondrial complex I; experiment: Mitochondrial complex protein level and activity (BN-PAGE, in-gel staining, quantitative assays); assay type: cell-based, mouse; conditions: over-expression in SN4741 cells
Text: (§4) (A) Requirement of mitochondrial MEF2D for complex I activity. […] Control indicates the control vector group. (B) Over-expression of ND6 rescued complex I activity reduced by Mt2Ddn. Control indicates the control vector group. (C) Measurement of various complex activities. […] Control indicates the control vector group. (D) Effects of over-expression of Mt2D or Mt2Ddn on mitochondrial function. Mt2Ddn reduced cellular ATP level and elevated H2O2 production in SN4741 cells (n=4; *p<0.05; **P<0.01). Control indicates the control vector group.
(§5) Mitochondrial complex I activity was evaluated initially by blue native-polyacrylamide gel electrophoresis (BN-PAGE) and in-gel activity staining. This assay measures total complex I activity. Rotenone sensitive complex I activity and activities of other mitochondrial complexes were further measured by methods described by Antoni et al., J Biol Chem, 1998, 273:14210-14217. Briefly, parallel assays were performed to measure complex I activity at 340 nm using 2,3-dimethoxy-5-methyl-6-n-decyl-1,4-benzoquinone (DB) (50 μM) as acceptor and NADH (0.8 mM) as donor, in 50 mM Tris (pH 8.0) buffer supplemented with 5 mg/ml BSA either without or with the addition of 4 μM rotenone, which gave total and rotenone insensitive complex I activities, respectively. The difference in value between the two provided a quantified measure of the rotenone-sensitive activity. Mitochondrial membrane potential was detected using a kit (cat. no. 280002) from Stratagene following the procedures provided by the manufacturer. The fluorescent dye JC-1 (5,5′,6,6′-tetrachloro-1,1′,3,3′-tetraethylbenzimidazolyl carbocyanine iodide) stains mitochondria red in a membrane potential dependent manner. Briefly, cells were seeded in 96-well plates at 4×10^4 cells/well with 100 μl culture medium and incubated at 33° C. with 5% CO2. After treatment, 10 μl/well of premixed JC-1 staining solution was added, and the cells were incubated for an additional 30 min under the same conditions. After thorough washes, 100 μl assay buffer was added to each well. Fluorescence signal was detected with excitation and emission at 520 nm and 590 nm, respectively, on a multi-well plate reader (Bio-Tek). Cellular ATP and H202 were measured by Bioluminescent Somatic Cell ATP Assay Kit (Sigma) and Hydrogen Peroxide Assay Kit (Cayman), respectively.

[9] = test system: SN4741 cells; experiment: Mitochondrial functional assays (ATP, H2O2, membrane potential); assay type: cell-based, mouse; conditions: over-expression in SN4741 cells
Text: as §4, §5

[10] = test system: human mtDNA fragment containing mitochondrial L-strand promoter (LSP) and ND6 gene; experiment: In vitro mtDNA L-strand transcription assay; assay type: biochemical
Text: as §1

[11] = test system: nuclear MEF2; experiment: MEF2 luciferase reporter assay; assay type: cell-based; conditions: co-transfected with MEF2 luciferase reporter
Text: (§6) Control indicates the group co-tranfected with control vector.
MEF2 luciferase reporter assay was done as described Wang et al., J Biol Chem, 2005, 280:16705-16713. Briefly, cells were transiently transfected with various constructs with MEF2 luciferase reporter plasmid (WT, reporter with wild type MEF2 DNA binding sites; mt, reporter with the MEF2 DNA binding sites mutated) using Lipofectimane 2000 (Invitrogen) following procedures provided by the manufacturer. A β-galactosidase expression plasmid was used to determine the efficiency in each transfection. The total amount of DNA for each transfection was kept constant by using control vectors. Cell lysates were analyzed for luciferase and β-galactosidase activity according to the manufacturer's instructions (Roche, cat. no. 11669893001).

[12] = test system: SN4741 cells; experiment: Subcellular localization of over-expressed MEF2D constructs; assay type: cell-based, mouse; conditions: over-expressed in SN4741 cells
Text: (A) Lack of mitochondrial localization by ΔN30MEF2D. […] VDAC, PARP and c-Raf are Mt, Nu and Cy markers, respectively. Control indicates the control vector group. (B) Immunocytochemistry analysis of mitochondrial localization of transfected Flag-MEF2D. […] Experiments were repeated four times. (C, D) Requirement of mtHsp70 for mitochondria-targeting of MEF2D (n=4; **p<0.01). Control indicates untreated. […]. Knocking down mouse mtHsp70 by siRNA reduced MEF2D level in purified mitochondria from SN4741 cells (C). […] MnSOD is a known mtHsp70-imported mitochondrial matrix protein.
as §3, §6
SN4741 cells or primary midbrain DA neurons were plated on glass slides in 24-well plates. Localizations of endogenous and exogenous MEF2D were visualized on a Zeiss LSM5 PASCAL confocal microscope. […] Quantification of colocalization of signals was done using “Colocalization Analysis” program of software Image Pro (Media Cybernetics). […]

[13] = target: MEF2D (1-91) (UniProt Q63943 Q63943:1-91); experiment: EMSA; 10 ng protein, on ice 30 min; conditions: tags: GST fusion (N-terminal GST); label: 32P
[14] = construct over-expressed in SN4741 cells

Row | Molecule | binding of mitochondrial MEF2D to the ND6 MEF2 site [1] | mRNA level of ND6 [2] | level of ND6 protein [3] | level of mitochondrial MEF2D protein [3] | level of MEF2D in the nucleus [3] | level of MEF2D in whole cell [3] | colocalization of MEF2D and MitoTracker signals [4] | other results
1 | C[n+]1ccc(-c2ccccc2)cc1 [MPP+, 1-methyl-4-phenylpyridinium] | greatly reduced | greatly reduced | decrease | decrease | not affected | not affected | preferentially reduced | neuronal viability [5]: loss of neuronal viability in a dose dependent manner
2 | CN1CC=C(c2ccccc2)CC1 [MPTP, 1-methyl 4-phenyl 1,2,3,6-tetrahydropyridine] |  |  |  |  |  |  |  | level of ND6 protein in mouse brain [6]: clear decline; mitochondrial MEF2D in mouse brain [6]: significant reduction; immunohistochemical signal for tyrosine hydroxylase (TH) [7]: loss
3 | C=C(C)[C@H]1Cc2c(ccc3c2O[C@@H]2COc4cc(OC)c(OC)cc4[C@@H]2C3=O)O1 [rotenone] | greatly reduced | greatly reduced | decrease | decrease | not affected | not affected | preferentially reduced | 
4 | B1 |  |  |  |  |  |  |  | binding of full length MEF2D to the ND6 MEF2 site [1, 14]: modulated; ND6 protein level / expression [3, 14]: did not significantly change; mitochondrial complex I activity [8]: neither increased the protein level nor the activity; cellular ATP level [9]: did not alter; hydrogen peroxide production by mitochondria [9]: did not alter; mitochondrial membrane potential ([9]; JC-1): did not alter; level of L-strand promoter (LSP) transcripts [10]: increases; nuclear MEF2 activity (MEF2 reporter) [11]: did not affect; mitochondrial localization by immunocytochemical staining (MitoTracker) [12]: targeted exclusively to mitochondria
5 | B2 |  |  |  |  |  |  |  | binding result [13]: binds
